Measured values reported in article PMC8774364, “Anti-Colon Cancer Activity of Novel Peptides Isolated from In Vitro Digestion of Quinoa Protein in Caco-2 Cells” (Foods, 2022).
Where two headings read alike, the source gives them in different places. Marks after values point to notes of the source that are not given here. Ends that are not written are not given here.

Experiments:
[1] = tested on: Caco-2 cells; type: cell-based, human; conditions: for Viable Cells (%): SD; for inhibition of Caco-2 proliferation: human, Caco-2, 72 h
Description: The human CRC cell line Caco-2 was obtained from American Type Cell Collection (ATCC, Manassas, VA, USA) and cultured in MEM medium supplemented with 20% FBS, 1% penicillin, and 1% streptomycin. Cells were maintained at 37 °C in a humidified incubator containing 5% CO2 and 95% air. The medium was changed every 24 h. All cells were assayed within 5–15 passages. Utilizing the CCK-8 kit (Biorigin, Beijing, China), the toxicity test was first performed. Caco-2 cells (100 µL) were incubated in the 96-well plate (1 × 10^5 cells/well) for 24 h, then the original medium was replaced with fresh medium containing different concentrations of QP (1–8 g/L), QPH (1–8 g/L), fraction MW < 5 kDa (1–8 g/L), fraction MW > 5 kDa (1–8 g/L), and selected peptides ranging from 0 to 2 g/L. After 24 h co-cultivation, the medium was discarded and washed with PBS 2 times, and a fresh medium with 10% CCK-8 reagent was added to each cell. Another 1 h later, the absorbance (OD value) was determined by an enzyme-labeling instrument at a wavelength of 450 nm. Experiments were performed in triplicate with at least three replicates per concentration, and results were expressed as percentage of negative control (non-treated Caco-2 cells).
For the proliferation experiments, Caco-2 cells were seeded into 96-well plates at a density of 2.5 × 10^4 per well for 24 h, the incubation was continued for 72 h. After that, the subsequent washing and CCK-8 reaction process were the same as performed in the toxicity test. Finally, the absorbance was also detected at 450 nm. Analyses were performed in triplicate with at least three replicates per concentration, and results were also shown as the percentage of non-treated Caco-2 cells.

[2] = target: T1, HDAC1 (Homo sapiens, UniProt Q13547); test: HDAC1 inhibitory activity assay (inhibitor screening kit, fluorescence); type: biochemical; conditions: for HDAC1 IC50 attained or not, in words: peptide 0.05–2 g/L tested; for IC50: peptide 0.05–2 g/L, 30 min at 37 °C, fluorescence, triplicate
T1 construct: purchased Abnova
T1 sequence (Q13547 whole entry): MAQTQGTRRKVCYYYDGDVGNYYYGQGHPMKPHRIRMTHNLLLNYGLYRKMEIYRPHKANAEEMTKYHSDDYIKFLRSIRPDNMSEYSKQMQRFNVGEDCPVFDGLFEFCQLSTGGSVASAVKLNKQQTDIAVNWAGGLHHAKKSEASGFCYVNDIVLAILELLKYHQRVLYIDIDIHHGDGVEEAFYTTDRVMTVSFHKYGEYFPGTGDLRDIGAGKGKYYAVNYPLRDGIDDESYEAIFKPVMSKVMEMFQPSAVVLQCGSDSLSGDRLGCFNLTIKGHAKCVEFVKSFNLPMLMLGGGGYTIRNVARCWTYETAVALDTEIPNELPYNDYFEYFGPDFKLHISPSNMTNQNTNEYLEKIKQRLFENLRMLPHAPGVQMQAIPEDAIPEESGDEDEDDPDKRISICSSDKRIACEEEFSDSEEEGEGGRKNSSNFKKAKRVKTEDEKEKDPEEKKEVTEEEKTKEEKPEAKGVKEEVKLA
Description: HDAC1 activity was determined using the HDAC1 inhibitor screening assay kit (Abnova, Taipei, Taiwan). The assay was performed according to the manufacture instruction manual. Briefly, the sample wells were added 140 µL assay buffer, 10 µL diluted HDAC1, and 10 µL peptide samples (0.05–2 g/L). The trichostatin A was set as the positive control, and the sample buffer was set as the negative control. We initiated the reactions by adding 10 µL of HDAC substrate to all the wells being used. Cover the plate with the plate cover and incubate on a shaker for 30 min at 37 °C. Remove the plate cover and add 40 µL of developer. Cover the plate with the plate cover and incubate for 15 min at room temperature. Remove the plate cover and read the fluorescence using an excitation wavelength of 340–360 nm and an emission wavelength of 440–465 nm. IC50 values were calculated using GraphPad Prism 8 software. Analyses were performed in triplicate with at least three replicates per concentration.

[3] = tested on: colon cancer cells; conditions: read-out: 50% inhibition; cited from earlier work
Text: Histone acetylation and deacetylation are important for the regulation of gene expression. The family of HDACs includes 18 members, and class I HDACs (HDAC 1, 2, 3, and 8) is considered to be the most important ones. […] For example, HDAC1 expression was increased in colorectal cancer and gastric cancer. In contrast, HDAC1 knockdown causes cell cycle arrest, reduces cancer cell viability, and induces cancer cell apoptosis. Moreover, pharmacological inhibitors ...

[4] = Caco-2, CCK-8, peptide 1 g/L, % of non-treated cells, mean ± SD
[5] = Caco-2, CCK-8, peptide 1 × 10^−1 g/L, % of non-treated cells, mean ± SD
[6] = Caco-2, CCK-8, peptide 2 g/L, % of non-treated cells, mean ± SD
[7] = Caco-2, CCK-8, peptide 5 × 10^−1 g/L, % of non-treated cells, mean ± SD

Substance	Viable Cells (%) [1, 4]	Viable Cells (%) [1, 5]	Viable Cells (%) [1, 6]	Viable Cells (%) [1, 7]	Viable Cells (%) ([1]; 24 h, 0.1 g/L)	Viable Cells (%) ([1]; 24 h, 0.5 g/L)	Viable Cells (%) ([1]; 24 h, 1 g/L)	Viable Cells (%) ([1]; 24 h, 2 g/L)	inhibition of Caco-2 proliferation ([1]; 1 g/L)	HDAC1 IC50 attained or not, in words [2]	IC50 [2]	IC50 [3]
FGGGTLGHPW [quinoa peptide identified from QPH fraction < 5 kDa]	90.41 ± 0.69 ^d %	97.09 ± 0.74 ^c %	89.72 ± 0.60 ^c %	91.65 ± 0.43 ^c %								
FHPFPR [FHPFPR]					90.04 ± 1.26 ^e %	75.46 ± 0.86 ^f %	51.41 ± 0.80 ^k %	50.82 ± 0.76 ^j %	more than 30%	can reach to IC50 value	1090 µM	
GLESPNYPWPH [quinoa peptide identified from QPH fraction < 5 kDa]	97.40 ± 0.73 ^b %	99.75 ± 1.06 ^a %	97.70%	99.32 ± 1.05 ^a %								
HGSLGFLPR [quinoa peptide identified from QPH fraction < 5 kDa]	96.81 ± 0.88 ^b %	97.35 ± 1.03 ^c %	95.80 ± 0.62 ^b %	96.91%								
HYNPYFPGGA [HYNPYFPGGA]					93.69 ± 0.68 ^d %	82.34 ± 1.36 ^e %	67.44 ± 1.26 ^i %	67.10 ± 1.87 ^h %	more than 30%	can reach to IC50 value	1650 µM	
INNIFRPF [quinoa peptide identified from QPH fraction < 5 kDa]	80.44 ± 0.68 ^f %	100.40 ± 1.29 ^a %	80.61 ± 0.41 ^e %	92.05 ± 1.07 ^c %						can reach to IC50 value		
NIFRPF [quinoa peptide identified from QPH fraction < 5 kDa]	70.29 ± 0.56 ^h %	100.10 ± 1.03 ^a %	70.55 ± 2.01 ^g %	85.11 ± 0.66 ^d %						can reach to IC50 value		
NSLSLPNFHPFPR [quinoa peptide identified from QPH fraction < 5 kDa]	86.55 ± 0.58 ^e %	100.79 ± 0.52 ^a %	83.56 ± 0.71 ^d %	92.78 ± 2.20 ^c %								
NSWGPNWGDHG [quinoa peptide identified from QPH fraction < 5 kDa]	99.58 ± 1.08 ^a %	98.87%	97.92 ± 1.41 ^a %	98.60 ± 2.28 ^a %								
NWFPLPR [NWFPLPR]					92.86 ± 1.10 ^d %	79.99 ± 0.86 ^e %	64.02 ± 1.39 ^j %	63.18 ± 0.83 ^i %	more than 30%	can reach to IC50 value	1370 µM	
PNFHPFPR [PNFHPFPR]					90.46 ± 1.43 ^e %	77.26 ± 1.65 ^f %	65.32 ± 1.45 ^j %	61.67 ± 1.64 ^i %	more than 30%	can reach to IC50 value		
SLPNFHPFPR [quinoa peptide identified from QPH fraction < 5 kDa]	78.51 ± 0.26 ^g %	97.79%	78.00 ± 0.80 ^f %	87.21 ± 0.32 ^d %						can reach to IC50 value		
SVENWFPLPR [quinoa peptide identified from QPH fraction < 5 kDa]	92.14 ± 0.69 ^c %	99.43%	91.04 ± 1.53 ^c %	95.50 ± 3.60 ^b %								
lunasin												61.7 µM
